Consider 11 compounds from ChEMBL document CHEMBL1201862, “PubChem BioAssay data set” (2004).

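96-well plates; 48 h exposure; 5 concentrations. Endpoints by linear interpolation between flanking doses. Not reached: highest tested concentration assigned. At the GI50, growth is halved.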 The source made the active and inactive calls. Rule as the data show it: active = GI50 up to about 1.1 µM and inactive = higher.

Test systems include SK-OV-3; NCI/ADR-RES; MCF7; MOLT-4; HL-60; SR; NCI-H460; SF-539; KM12; U-251; COLO 205; K562; RXF 393; HT-29; OVCAR-3; HOP-62; UACC-62; M14; NCI-H522; RPMI-8226.
Experiment in all cases: NCI anticancer screen, dose series, 48 h

On to `NC(=S)N/N=C1\C(=O)Nc2c(Cl)cc(Cl)cc21`, for which the GI50 is 41.9 µM (inactive) in the assay with SK-OV-3; 17.8 µM (inactive) in the assay on NCI/ADR-RES; 28 µM (inactive) in the assay on MCF7; 14 µM (inactive) in the assay with MOLT-4; 12.4 µM (inactive) in the assay on HL-60; 16.3 µM (inactive) in the assay on SR. The GI50 in the assay with NCI-H460 was 17.1 µM (inactive); with SF-539 it was 18.1 µM (inactive); in the assay on KM12 it was 18.9 µM (inactive); in the assay with U-251, 19.5 µM (inactive); with COLO 205, 20.2 µM (inactive); in the assay with K562, 29.6 µM (inactive). For the same compound, the GI50 in the assay with RXF 393 is 16 µM (inactive); in the assay with HT-29 it was 18.8 µM (inactive); in the assay on OVCAR-3, 11.7 µM (inactive); in the assay with HOP-62 it was 13 µM (inactive); in the assay with UACC-62 it was 17.3 µM (inactive); with M14, 17.2 µM (inactive).
Take `Cc1cc(C)c2c(n1)S(=O)(=O)N(CCCN1CCN(c3cccc(C(F)(F)F)c3)CC1)C(C(=O)c1ccccc1)=C2O`: the GI50 is 20 µM (inactive) in the assay with SK-OV-3; 3.21 µM (inactive) in the assay with NCI/ADR-RES; 7.13 µM (inactive) in the assay with MCF7; 2.67 µM (inactive) in the assay on MOLT-4; 2.61 µM (inactive) in the assay with HL-60; 2.93 µM (inactive) with SR. Besides, the GI50 in the assay on NCI-H460 was 4.66 µM (inactive); in the assay on SF-539 it was 10.1 µM (inactive); in the assay with KM12, 5.02 µM (inactive); in the assay with U-251, 5.4 µM (inactive); in the assay on COLO 205, 3.31 µM (inactive); in the assay with NCI-H522 it was 4 µM (inactive). For the same compound, the GI50 in the assay with K562 was 3.69 µM (inactive); in the assay with RXF 393, 5.73 µM (inactive); with HT-29, 5.22 µM (inactive); in the assay with OVCAR-3 it was 4.18 µM (inactive); with HOP-62, 8.38 µM (inactive); in the assay with UACC-62, 10.2 µM (inactive). Moreover, in the assay with M14, the GI50 is 7.36 µM (inactive).
For `CCN(CC)CCNCc1cc(Cl)cc2c1OCOC2`, the GI50 in the assay on SK-OV-3, in the assay with NCI/ADR-RES, in the assay with MCF7, with MOLT-4, in the assay on HL-60 and in the assay on SR was > 10 µM (inactive) in each case. The GI50 with NCI-H460, with RPMI-8226, in the assay with SF-539, in the assay with KM12, in the assay with U-251 and in the assay on COLO 205 was > 10 µM (inactive) throughout. Further, the GI50 with NCI-H522, in the assay with K562, with RXF 393, with HT-29, with OVCAR-3 and in the assay on HOP-62 was > 10 µM (inactive) throughout. The GI50 in the assay with UACC-62 and in the assay on M14 was > 10 µM (inactive) in each case.
Regarding `CN(C)c1ccc(/C=N/c2ccc(Oc3ccc(Cl)cc3)c(Cl)c2)cc1`, the GI50 in the assay on SK-OV-3 was 26.8 µM (inactive); in the assay on NCI/ADR-RES it was 16.2 µM (inactive); in the assay with MCF7, 42.7 µM (inactive); with MOLT-4 it was 18.5 µM (inactive); in the assay with HL-60 it was 11.7 µM (inactive); in the assay on SR, 10.9 µM (inactive). The GI50 is 19.5 µM (inactive) with NCI-H460; 11.4 µM (inactive) with RPMI-8226; 16.9 µM (inactive) in the assay on SF-539; 17.1 µM (inactive) in the assay with KM12; 16.9 µM (inactive) in the assay with U-251; 22.1 µM (inactive) in the assay with COLO 205. For the same compound, the GI50 with NCI-H522 is 13.8 µM (inactive); in the assay on HT-29 it was 16.1 µM (inactive); with OVCAR-3, 12.9 µM (inactive); in the assay with HOP-62, 18.7 µM (inactive); with UACC-62, 17.5 µM (inactive); in the assay with M14, 28.1 µM (inactive).
Regarding `CC1=NN(C(=O)c2ccc(Cl)cc2)C(=O)C1/N=N/c1ccc(S(=O)(=O)Nc2ncccn2)cc1` (stereo unspecified), the GI50 in the assay on SK-OV-3, in the assay on NCI/ADR-RES, in the assay with MCF7, in the assay with MOLT-4, with HL-60 and in the assay with SR was > 100 µM (inactive) in each case. The GI50 in the assay on NCI-H460, with SF-539, in the assay on KM12, in the assay on U-251, with COLO 205 and in the assay on NCI-H522 was > 100 µM (inactive) each time. Moreover, the GI50 in the assay on K562, in the assay on RXF 393, with HT-29, in the assay with OVCAR-3, in the assay with HOP-62 and with UACC-62 was > 100 µM (inactive) in each case. Further, the GI50 in the assay with M14 was > 100 µM (inactive).
As to `COc1ccc2[nH]c(Cl)c(/C=C3/C(=O)Nc4cc(C)c(OC)cc43)c2c1`, the GI50 with SK-OV-3 was 2.52 µM (inactive); in the assay with NCI/ADR-RES, 2.44 µM (inactive); with MCF7 it was 3.8 µM (inactive); in the assay with MOLT-4, 4.32 µM (inactive); with HL-60, 1.91 µM (inactive); in the assay with SR, 3.08 µM (inactive). Moreover, the GI50 was 3.36 µM (inactive) with NCI-H460; 4.32 µM (inactive) in the assay on RPMI-8226; 0.723 µM (active) with SF-539; 3.35 µM (inactive) in the assay on KM12; 4.88 µM (inactive) in the assay on U-251; 2.02 µM (inactive) in the assay with COLO 205. Also, the GI50 in the assay with NCI-H522 was 2.9 µM (inactive); in the assay on K562, 4.39 µM (inactive); with RXF 393 it was 11.1 µM (inactive); in the assay on HT-29, 4.23 µM (inactive); in the assay with OVCAR-3, 2.66 µM (inactive); in the assay with HOP-62, 5.48 µM (inactive). The GI50 with UACC-62 is 3.55 µM (inactive); in the assay with M14, 3.98 µM (inactive).
For `Cc1nc(Nc2nc3ccccc3[nH]2)[nH]c(=O)c1CCO`, the GI50 is 38.3 µM (inactive) in the assay with SK-OV-3; > 100 µM (inactive) in the assay on NCI/ADR-RES; > 100 µM (inactive) in the assay on MCF7; > 100 µM (inactive) in the assay with MOLT-4; 75.9 µM (inactive) in the assay with HL-60; 30.9 µM (inactive) in the assay on SR. Moreover, the GI50 was 34.6 µM (inactive) in the assay on NCI-H460; 39.9 µM (inactive) with SF-539; > 100 µM (inactive) in the assay with KM12; 59.8 µM (inactive) with U-251; > 59.8 µM (inactive) with COLO 205; > 100 µM (inactive) in the assay with NCI-H522. Besides, the GI50 was > 100 µM (inactive) in the assay with K562; 21.7 µM (inactive) in the assay on RXF 393; > 100 µM (inactive) in the assay on HT-29; > 100 µM (inactive) in the assay with OVCAR-3; > 100 µM (inactive) in the assay on HOP-62; 68.9 µM (inactive) with UACC-62. Moreover, in the assay with M14, the GI50 was 27.2 µM (inactive).
Consider `CO/N=C1/c2sccc2[C@H](NC(=O)CNC(=O)OC(C)(C)C)[C@@H]1O`, for which the GI50 with SK-OV-3, with NCI/ADR-RES, with MCF7, in the assay on MOLT-4, in the assay with HL-60 and in the assay on SR was > 100 µM (inactive) each time. Besides, the GI50 with NCI-H460, with SF-539, in the assay with U-251, in the assay with COLO 205, in the assay on K562 and in the assay on RXF 393 was > 100 µM (inactive) each time. For the same compound, the GI50 with HT-29, in the assay with OVCAR-3, in the assay with HOP-62, with UACC-62 and with M14 was > 100 µM (inactive) each time.
As for `CC(C)(C)NC(=S)N/N=C/c1ccccn1`, the GI50 is 1.96 µM (inactive) with SK-OV-3; 0.0343 µM (active) in the assay with NCI/ADR-RES; < 0.01 µM (active) with MCF7; < 0.01 µM (active) with MOLT-4; < 0.01 µM (active) in the assay on HL-60; < 0.01 µM (active) in the assay with SR. The GI50 was 0.968 µM (active) in the assay on NCI-H460; < 0.0106 µM (active) in the assay with RPMI-8226; 3.28 µM (inactive) in the assay with SF-539; 1.94 µM (inactive) in the assay on KM12; 0.357 µM (active) in the assay on U-251; < 0.01 µM (active) with COLO 205. Besides, the GI50 is < 0.01 µM (active) in the assay on K562; < 0.01 µM (active) with RXF 393; < 0.0452 µM (active) in the assay on HT-29; < 0.0155 µM (active) in the assay with OVCAR-3; 0.396 µM (active) with HOP-62; 0.578 µM (active) in the assay with UACC-62. Further, the GI50 in the assay with M14 is 0.0851 µM (active).
`COC(=O)c1cc(C)ccc1CC(Cc1cccc(C)c1)C(=O)OC` (stereo unspecified): the GI50 was 4.06 µM (inactive) with SK-OV-3; 95.9 µM (inactive) with NCI/ADR-RES; > 100 µM (inactive) in the assay with MCF7; 23.4 µM (inactive) in the assay with MOLT-4; 34.7 µM (inactive) in the assay on HL-60; 38.4 µM (inactive) in the assay with SR. For the same compound, the GI50 in the assay with NCI-H460 is > 100 µM (inactive); in the assay with RPMI-8226, 29.6 µM (inactive); with SF-539, > 100 µM (inactive); in the assay with KM12, > 100 µM (inactive); with U-251, > 100 µM (inactive); in the assay with COLO 205 it was > 100 µM (inactive). Further, the GI50 was 74.6 µM (inactive) in the assay with NCI-H522; 45.7 µM (inactive) in the assay with K562; 29.2 µM (inactive) in the assay on RXF 393; 50.6 µM (inactive) with HT-29; > 100 µM (inactive) in the assay with OVCAR-3; > 100 µM (inactive) with HOP-62. Further, the GI50 in the assay on M14 was > 100 µM (inactive).
Consider `COc1c(Cl)ccc(Cl)c1C(=O)NNC(=O)c1c(Cl)c(Cl)c(Cl)c(Cl)c1-c1nc2cc(C(=O)c3ccccc3)ccc2[nH]1`, for which the GI50 in the assay on SK-OV-3 was > 100 µM (inactive); in the assay on NCI/ADR-RES, > 100 µM (inactive); in the assay with MCF7 it was 44.4 µM (inactive); in the assay with MOLT-4, 20.6 µM (inactive); in the assay on HL-60, 50.5 µM (inactive); with SR, 37.2 µM (inactive). Besides, the GI50 with RPMI-8226 was 24.2 µM (inactive); with SF-539 it was > 100 µM (inactive); with KM12 it was 80.5 µM (inactive); with U-251, 53.2 µM (inactive); in the assay with COLO 205, 47.4 µM (inactive); in the assay on NCI-H522, 33.1 µM (inactive). In addition, the GI50 in the assay on K562 was 26.7 µM (inactive); in the assay on RXF 393 it was 19.5 µM (inactive); in the assay with HT-29, 62.1 µM (inactive); in the assay on OVCAR-3, 30.5 µM (inactive); with HOP-62, 82 µM (inactive); in the assay with M14, 52.6 µM (inactive).
